Data published in patent EP4707280A1, “1,4-CINEOLE DERIVATIVE AND INTERMEDIATE THEREOF, HERBICIDE CONTAINING SAID DERIVATIVE AS ACTIVE INGREDIENT, METHOD FOR USING HERBICIDE, AND METHOD FOR PREPARING AGROCHEMICAL COMPOSITION” (HOKKO CHEMICAL INDUSTRY CO., LTD., priority 2023, dated 2024).

Tests used:
Type in all cases: in vivo
[1] = system: Echinochloa crus-galli var. formosensis; assay: Test Example 1: herbicidal effect test by soil application in paddy rice; conditions: Echinochloa crus-galli, soil, 336 h; 120 g active ingredient per 10 ares; applied immediately after sowing, flooded pots; 14 days after application; read-out: weed inhibition rate
Method in brief: (§1)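 Treatment: 120 g active ingredient per 10 ares as a water-diluted emulsifiable concentrate, dropped onto flooded pots immediately after sowing. Thirty seeds per species went 0–1 cm into puddled paddy soil with 16:16:16 fertilizer, with ~3 cm flooding maintained in a glass greenhouse.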

Scirpus juncoides [2] = assay: as above; conditions: Schoenoplectiella juncoides, soil, 336 h; 120 g active ingredient per 10 ares; applied immediately after sowing, flooded pots; 14 days after application; read-out: weed inhibition rate
Method in brief: as §1

[3] = system: Echinochloa crus-galli var. formosensis; assay: Test Example 2: herbicidal effect test by application during growth period of paddy rice; conditions: Echinochloa crus-galli; 120 g per 10 ares; applied seven days after sowing, flooded pots; 14 days after application; read-out: weed inhibition rate
Method in brief: (§2)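 Paddy soil in Wagner pots was puddled with N:P:K 16:16:16 fertilizer, sown with 30 weed seeds per species at 0–1 cm and flooded to about 3 cm. Seven days after sowing, a water-diluted emulsifiable concentrate was dropped onto the water at 120 g active ingredient per 10 ares. Weed inhibition (%) was scored at 14 days, in duplicate.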

Scirpus juncoides [4] = assay: as above; conditions: Schoenoplectiella juncoides; 120 g per 10 ares; applied seven days after sowing, flooded pots; 14 days after application; read-out: weed inhibition rate
Method in brief: as §2

Digitaria ciliaris [5] = assay: Test Example 3: herbicidal effect test by soil application in upland field; conditions: Digitaria ciliaris, 120 g per 10 ares, sprayed one day after sowing, 14 days after application, read-out: weed inhibition rate
Method in brief: (§3)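 Weed inhibition (%) was assessed 14 days after treatment, in duplicate per concentration group. Seeds had been mixed into the upper 1 cm of upland alluvial loam, and the soil surface was sprayed one day later with the diluted emulsifiable concentrate at 120 g active ingredient per 10 ares.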

Echinochloa crus-galli [6] = assay: as above; conditions: Echinochloa crus-galli, 120 g per 10 ares, sprayed one day after sowing, 14 days after application, read-out: weed inhibition rate
Method in brief: as §3

Digitaria ciliaris [7] = assay: Test Example 4: herbicidal effect test by stem and leaf treatment in upland field; conditions: Digitaria ciliaris; 120 g per 10 ares; sprayed seven days after sowing, upland soil; 14 days after application; read-out: weed inhibition rate
Echinochloa crus-galli [8] = assay: as above; conditions: Echinochloa crus-galli; 120 g per 10 ares; sprayed seven days after sowing, upland soil; 14 days after application; read-out: weed inhibition rate
[9] = system: Echinochloa crus-galli var. formosensis; assay: Test Example 5: herbicidal effect test by soil application in paddy rice (low dose); conditions: Echinochloa crus-galli, soil, 336 h; 7.5 g per 10 ares; applied immediately after sowing, flooded pots; 14 days after application; read-out: weed inhibition rate
Method in brief: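 Paddy soil in Wagner pots was fertilized (N:P:K 16:16:16), puddled, sown with 30 seeds per weed species at 0–1 cm, then flooded to ~3 cm in a glass greenhouse. Emulsifiable concentrate diluted in water was dropper-applied into floodwater immediately, at 7.5 g active ingredient per 10 ares; duplicates, scored at 14 days.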

[10] = system: Echinochloa crus-galli var. formosensis; assay: Test Example 6: herbicidal effect test by application during growth period of paddy rice (low dose); conditions: Echinochloa crus-galli; 7.5 g per 10 ares; applied seven days after sowing, flooded pots; 14 days after application; read-out: weed inhibition rate
Method in brief: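 Formulated compound, diluted in water, was dropped onto flooded pots seven days post-sowing at 7.5 g a.i. per 10 ares. Seeds had been sown 0-1 cm deep in puddled paddy soil under ~3 cm water in a glass greenhouse. Inhibition (%) assessed at 14 days; duplicate pots.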

Digitaria ciliaris [11] = assay: Test Example 7: herbicidal effect test by soil application in upland field (low dose); conditions: Digitaria ciliaris, 7.5 g per 10 ares, sprayed one day after sowing, 14 days after application, read-out: weed inhibition rate
Method in brief: (§4)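 Pre-emergence soil application: upland alluvial loam pots sown with weed seeds mixed into the top 1 cm; one day after sowing, a water-diluted emulsifiable concentrate was sprayed on the soil at 100 L per 10 a, delivering 7.5 g active ingredient per 10 a. Weed inhibition rate (%) scored 14 days after application, duplicate pots.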

Echinochloa crus-galli [12] = assay: as above; conditions: Echinochloa crus-galli, 7.5 g per 10 ares, sprayed one day after sowing, 14 days after application, read-out: weed inhibition rate
Method in brief: as §4

Digitaria ciliaris [13] = assay: Test Example 8: herbicidal effect test by stem and leaf treatment in upland field (low dose); conditions: Digitaria ciliaris; 7.5 g per 10 ares; sprayed seven days after sowing, upland soil; 14 days after application; read-out: weed inhibition rate
Echinochloa crus-galli [14] = assay: as above; conditions: Echinochloa crus-galli; 7.5 g per 10 ares; sprayed seven days after sowing, upland soil; 14 days after application; read-out: weed inhibition rate

CC#CCOC1CC2(C(C)C)OC1(C)CC2I (stereo not drawn) [1-1402, 5-but-2-ynoxy-2-iodo-1-isopropyl-4-methyl-7-oxabicyclo[2.2.1]heptane]
≥ 80%: pest or weed control at 1200 g/ha [1] | pest or weed control at 1200 g/ha (Scirpus juncoides [2]) | inhibition at 1200 g/ha [3] | inhibition at 1200 g/ha (Scirpus juncoides [4]) | inhibition at 1200 g/ha (Digitaria ciliaris [5]) | inhibition at 1200 g/ha (Echinochloa crus-galli [6]) | inhibition at 1200 g/ha (Digitaria ciliaris [7]) | inhibition at 1200 g/ha (Echinochloa crus-galli [8]) | inhibition at 75 g/ha [9] | inhibition at 75 g/ha [10] | inhibition at 75 g/ha (Digitaria ciliaris [11]) | inhibition at 75 g/ha (Echinochloa crus-galli [12]) | inhibition at 75 g/ha (Digitaria ciliaris [13]) | inhibition at 75 g/ha (Echinochloa crus-galli [14])

CC(C)C12CC(OCc3ccccc3)C(C)(CC1I)O2 (stereo not drawn) [1-1408, 5-iodo-1-methyl-2-phenylmethoxy-4-isopropyl-7-oxabicyclo[2.2.1]heptane]
≥ 80%: pest or weed control at 1200 g/ha [1] | pest or weed control at 1200 g/ha (Scirpus juncoides [2]) | inhibition at 1200 g/ha [3] | inhibition at 1200 g/ha (Scirpus juncoides [4]) | inhibition at 1200 g/ha (Digitaria ciliaris [5]) | inhibition at 1200 g/ha (Echinochloa crus-galli [6]) | inhibition at 1200 g/ha (Digitaria ciliaris [7]) | inhibition at 1200 g/ha (Echinochloa crus-galli [8]) | inhibition at 75 g/ha [9] | inhibition at 75 g/ha [10] | inhibition at 75 g/ha (Digitaria ciliaris [11]) | inhibition at 75 g/ha (Echinochloa crus-galli [12]) | inhibition at 75 g/ha (Digitaria ciliaris [13]) | inhibition at 75 g/ha (Echinochloa crus-galli [14])

Cc1ccccc1COC1CC2(C(C)C)OC1(C)CC2I (stereo not drawn) [1-1409, 5-iodo-1-methyl-2-[(2-methylphenyl)methoxy]-4-isopropyl-7-oxabicyclo[2.2.1]heptane]
≥ 80%: pest or weed control at 1200 g/ha [1] | pest or weed control at 1200 g/ha (Scirpus juncoides [2]) | inhibition at 1200 g/ha [3] | inhibition at 1200 g/ha (Scirpus juncoides [4]) | inhibition at 1200 g/ha (Digitaria ciliaris [5]) | inhibition at 1200 g/ha (Echinochloa crus-galli [6]) | inhibition at 1200 g/ha (Digitaria ciliaris [7]) | inhibition at 1200 g/ha (Echinochloa crus-galli [8]) | inhibition at 75 g/ha [9] | inhibition at 75 g/ha [10] | inhibition at 75 g/ha (Digitaria ciliaris [11]) | inhibition at 75 g/ha (Echinochloa crus-galli [12]) | inhibition at 75 g/ha (Digitaria ciliaris [13]) | inhibition at 75 g/ha (Echinochloa crus-galli [14])

COc1ccccc1COC1CC2(C(C)C)OC1(C)CC2I (stereo not drawn) [1-1415, 5-iodo-2-[(2-methoxyphenyl)methoxy]-1-methyl-4-isopropyl-7-oxabicyclo[2.2.1]heptane]
≥ 80%: pest or weed control at 1200 g/ha [1] | pest or weed control at 1200 g/ha (Scirpus juncoides [2]) | inhibition at 1200 g/ha [3] | inhibition at 1200 g/ha (Scirpus juncoides [4]) | inhibition at 1200 g/ha (Digitaria ciliaris [5]) | inhibition at 1200 g/ha (Echinochloa crus-galli [6]) | inhibition at 1200 g/ha (Digitaria ciliaris [7]) | inhibition at 1200 g/ha (Echinochloa crus-galli [8]) | inhibition at 75 g/ha [9] | inhibition at 75 g/ha [10] | inhibition at 75 g/ha (Digitaria ciliaris [11]) | inhibition at 75 g/ha (Echinochloa crus-galli [12]) | inhibition at 75 g/ha (Digitaria ciliaris [13]) | inhibition at 75 g/ha (Echinochloa crus-galli [14])

CC(C)C12CC(OCc3ccccc3F)C(C)(CC1I)O2 (stereo not drawn) [1-1421, 2-[(2-fluorophenyl)methoxy]-5-iodo-1-methyl-4-isopropyl-7-oxabicyclo[2.2.1]heptane]
≥ 80%: pest or weed control at 1200 g/ha [1] | pest or weed control at 1200 g/ha (Scirpus juncoides [2]) | inhibition at 1200 g/ha [3] | inhibition at 1200 g/ha (Scirpus juncoides [4]) | inhibition at 1200 g/ha (Digitaria ciliaris [5]) | inhibition at 1200 g/ha (Echinochloa crus-galli [6]) | inhibition at 1200 g/ha (Digitaria ciliaris [7]) | inhibition at 1200 g/ha (Echinochloa crus-galli [8]) | inhibition at 75 g/ha [9] | inhibition at 75 g/ha [10] | inhibition at 75 g/ha (Digitaria ciliaris [11]) | inhibition at 75 g/ha (Echinochloa crus-galli [12]) | inhibition at 75 g/ha (Digitaria ciliaris [13]) | inhibition at 75 g/ha (Echinochloa crus-galli [14])

CC(C)C12CC(OCc3ccccc3Cl)C(C)(CC1I)O2 (stereo not drawn) [1-1424, 5-[(2-chlorophenyl)methoxy]-2-iodo-1-isopropyl-4-methyl-7-oxabicyclo[2.2.1]heptane]
≥ 80%: pest or weed control at 1200 g/ha [1] | pest or weed control at 1200 g/ha (Scirpus juncoides [2]) | inhibition at 1200 g/ha [3] | inhibition at 1200 g/ha (Scirpus juncoides [4]) | inhibition at 1200 g/ha (Digitaria ciliaris [5]) | inhibition at 1200 g/ha (Echinochloa crus-galli [6]) | inhibition at 1200 g/ha (Digitaria ciliaris [7]) | inhibition at 1200 g/ha (Echinochloa crus-galli [8]) | inhibition at 75 g/ha [9] | inhibition at 75 g/ha [10] | inhibition at 75 g/ha (Digitaria ciliaris [11]) | inhibition at 75 g/ha (Echinochloa crus-galli [12]) | inhibition at 75 g/ha (Digitaria ciliaris [13]) | inhibition at 75 g/ha (Echinochloa crus-galli [14])
